Test results: US12227482B2, “Compounds and compositions for the treatment of cancer” (The Regents of the University of California, priority 2016, dated 2025)

Legend:
Type in all cases: cell-based
MelJuSo cells = experiment: Cell viability (CellTiter-Glo ATP content) in MelJuSo cells; conditions: Homo sapiens, MEL-JUSO, 72 hours treatment, cell survival by CellTiter-Glo, 2% fetal bovine serum
Summary of the method: (§1)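 Cells plated at 5,000 per well in antibiotic-free RPMI with 2% FBS, treated next day in triplicate with increasing compound doses (final DMSO 0.5%) for 72 hours. Viability read as ATP content by CellTiter-Glo luminescence; percent survival relative to vehicle control set as 100%.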

A549 cells = experiment: Cell viability (CellTiter-Glo ATP content) in A549 cells; conditions: Homo sapiens, A549, 72 h, 72 hours treatment, cell survival by CellTiter-Glo, 2% fetal bovine serum
Summary of the method: as §1

LOX cells = experiment: Cell viability (CellTiter-Glo ATP content) in LOX cells; conditions: LOX, 72 h, 72 hours treatment, cell survival by CellTiter-Glo, 2% fetal bovine serum
Summary of the method: as §1

SMILES: CC1(C(=O)NCC(=O)NCCO)C(c2cccs2)C(c2ccc(F)cc2)=NN1c1ccc(F)cc1F (stereo not drawn) [Compound 112, 1-(2,4-difluorophenyl)-3-(4-fluorophenyl)-N-(2-(2-hydroxyethylamino)-2-oxoethyl)-5-methyl-4-(thiophen-2-yl)-4,5-dihydro-1H-pyrazole-5-carboxamide]
- IC50 (MelJuSo cells): > 2 µM
- IC50 (A549 cells): > 2 µM
- IC50 (LOX cells): > 2 µM

SMILES: CCCCC1C(c2ccc(S(C)(=O)=O)cc2)=NN(c2ccc(F)cc2F)C1(C)C(=O)NCCCC(C)(C)CO (stereo not drawn) [Compound 113, 4-butyl-1-(2,4-difluorophenyl)-N-(5-hydroxy-4,4-dimethylpentyl)-5-methyl-3-(4-(methylsulfonyl)phenyl)-4,5-dihydro-1H-pyrazole-5-carboxamide]
- IC50 (MelJuSo cells): > 2 µM
- IC50 (A549 cells): > 2 µM
- IC50 (LOX cells): > 2 µM

SMILES: CCCCC1C(c2ccc(S(C)(=O)=O)cc2)=NN(c2ccc(F)cc2F)C1(C)C(=O)NCCOC (stereo not drawn) [Compound 114, 4-butyl-1-(2,4-difluorophenyl)-N-(2-methoxyethyl)-5-methyl-3-(4-(methylsulfonyl)phenyl)-4,5-dihydro-1H-pyrazole-5-carboxamide]
- IC50 (MelJuSo cells): > 2 µM
- IC50 (A549 cells): > 2 µM
- IC50 (LOX cells): > 2 µM

SMILES: CC(C)(CO)CCCNC(=O)C1(C)C(c2ccco2)C(c2ccc(F)cc2F)=NN1c1ccc(F)cc1F (stereo not drawn) [Compound 115, 1,3-bis(2,4-difluorophenyl)-4-(furan-2-yl)-N-(5-hydroxy-4,4-dimethylpentyl)-5-methyl-4,5-dihydro-1H-pyrazole-5-carboxamide]
- IC50 (MelJuSo cells): 0.25 to 0.5 µM
- IC50 (A549 cells): 0.5 to 1 µM
- IC50 (LOX cells): 0.5 to 1 µM

SMILES: COCCNC(=O)C1(C)C(c2ccco2)C(c2ccc(F)cc2F)=NN1c1ccc(F)cc1F (stereo not drawn) [Compound 116, 1,3-bis(2,4-difluorophenyl)-4-(furan-2-yl)-N-(2-methoxyethyl)-5-methyl-4,5-dihydro-1H-pyrazole-5-carboxamide]
- IC50 (MelJuSo cells): < 0.25 µM
- IC50 (A549 cells): 0.25 to 0.5 µM
- IC50 (LOX cells): < 0.25 µM

SMILES: CC(C)(CO)CCCNC(=O)C1(C)C(c2ccsc2)C(c2ccc(F)cc2F)=NN1c1ccc(F)cc1F (stereo not drawn) [Compound 117, 1,3-bis(2,4-difluorophenyl)-N-(5-hydroxy-4,4-dimethylpentyl)-5-methyl-4-(thiophen-3-yl)-4,5-dihydro-1H-pyrazole-5-carboxamide]
- IC50 (MelJuSo cells): 0.25 to 0.5 µM
- IC50 (A549 cells): 0.5 to 1 µM
- IC50 (LOX cells): 0.5 to 1 µM

SMILES: COCCNC(=O)C1(C)C(c2ccsc2)C(c2ccc(F)cc2F)=NN1c1ccc(F)cc1F (stereo not drawn) [Compound 118, 1,3-bis(2,4-difluorophenyl)-N-(2-methoxyethyl)-5-methyl-4-(thiophen-3-yl)-4,5-dihydro-1H-pyrazole-5-carboxamide]
- IC50 (MelJuSo cells): < 0.25 µM
- IC50 (A549 cells): < 0.25 µM
- IC50 (LOX cells): < 0.25 µM

SMILES: COC(=O)CNC(=O)C1(C)C(c2ccsc2)C(c2ccc(F)cc2F)=NN1c1ccc(F)cc1F (stereo not drawn) [Compound 119, methyl 2-(1,3-bis(2,4-difluorophenyl)-5-methyl-4-(thiophen-3-yl)-4,5-dihydro-1H-pyrazole-5-carboxamido)acetate]
- IC50 (MelJuSo cells): < 0.25 µM
- IC50 (A549 cells): 0.5 to 1 µM
- IC50 (LOX cells): 0.25 to 0.5 µM

SMILES: COCCNC(=O)C1(C)C(c2ccc(Cl)o2)C(c2ccc(F)cc2F)=NN1c1ccc(F)cc1F (stereo not drawn) [Compound 120, 4-(5-chlorofuran-2-yl)-1,3-bis(2,4-difluorophenyl)-N-(2-methoxyethyl)-5-methyl-4,5-dihydro-1H-pyrazole-5-carboxamide]
- IC50 (MelJuSo cells): < 0.25 µM
- IC50 (A549 cells): < 0.25 µM
- IC50 (LOX cells): < 0.25 µM

SMILES: COC(=O)CNC(=O)C1(C)C(c2ccc(Cl)o2)C(c2ccc(F)cc2F)=NN1c1ccc(F)cc1F (stereo not drawn) [Compound 121, methyl 2-(4-(5-chlorofuran-2-yl)-1,3-bis(2,4-difluorophenyl)-5-methyl-4,5-dihydro-1H-pyrazole-5-carboxamido)acetate]
- IC50 (MelJuSo cells): < 0.25 µM
- IC50 (A549 cells): < 0.25 µM
- IC50 (LOX cells): < 0.25 µM

SMILES: CC1(C(=O)NCCCN2CCOCC2)C(c2cccs2)C(c2ccc(F)cc2)=NN1c1ccc(F)cc1F (stereo not drawn) [Compound 122, 1-(2,4-difluorophenyl)-3-(4-fluorophenyl)-5-methyl-N-(3-morpholinopropyl)-4-(thiophen-2-yl)-4,5-dihydro-1H-pyrazole-5-carboxamide]
- IC50 (MelJuSo cells): > 2 µM
- IC50 (A549 cells): > 2 µM
- IC50 (LOX cells): > 2 µM

SMILES: CNC(=O)CNC(=O)C1(C)C(c2cccs2)C(c2ccc(F)cc2)=NN1c1ccc(F)cc1F (stereo not drawn) [Compound 123, 1-(2,4-difluorophenyl)-3-(4-fluorophenyl)-5-methyl-N-(2-(methylamino)-2-oxoethyl)-4-(thiophen-2-yl)-4,5-dihydro-1H-pyrazole-5-carboxamide]
- IC50 (MelJuSo cells): 1 to 2 µM
- IC50 (A549 cells): > 2 µM
- IC50 (LOX cells): > 2 µM

SMILES: CC1(C(=O)NCC(O)CCO)C(c2cccs2)C(c2ccc(F)cc2)=NN1c1ccc(F)cc1F (stereo not drawn) [Compound 124, 1-(2,4-difluorophenyl)-N-(2,4-dihydroxybutyl)-3-(4-fluorophenyl)-5-methyl-4-(thiophen-2-yl)-4,5-dihydro-1H-pyrazole-5-carboxamide]
- IC50 (MelJuSo cells): > 2 µM
- IC50 (A549 cells): > 2 µM
- IC50 (LOX cells): > 2 µM

SMILES: CC1(C(=O)NCCNC(=O)CCCCC2SC[C@@H]3NC(=O)N[C@H]23)C(c2cccs2)C(c2ccc(F)cc2)=NN1c1ccc(F)cc1F (stereo partly drawn) [Compound 125, 1-(2,4-difluorophenyl)-3-(4-fluorophenyl)-5-methyl-N-(2-(5-((3aS,6aR)-2-oxohexahydro-1H-thieno[3,4-d]imidazol-4-yl)pentanamido)ethyl)-4-(thiophen-2-yl)-4,5-dihydro-1H-pyrazole-5-carboxamide]
- IC50 (MelJuSo cells): > 2 µM
- IC50 (A549 cells): > 2 µM
- IC50 (LOX cells): > 2 µM

SMILES: CC1(C(=O)NCCN2CCOCC2)C(c2cccs2)C(c2ccc(F)cc2)=NN1c1ccc(F)cc1F (stereo not drawn) [Compound 126, 1-(2,4-difluorophenyl)-3-(4-fluorophenyl)-5-methyl-N-(2-morpholinoethyl)-4-(thiophen-2-yl)-4,5-dihydro-1H-pyrazole-5-carboxamide]
- IC50 (MelJuSo cells): > 2 µM
- IC50 (A549 cells): > 2 µM
- IC50 (LOX cells): > 2 µM

SMILES: CN1CCOC(CNC(=O)C2(C)C(c3cccs3)C(c3ccc(F)cc3)=NN2c2ccc(F)cc2F)C1 (stereo not drawn) [Compound 127, 1-(2,4-difluorophenyl)-3-(4-fluorophenyl)-5-methyl-N-((4-methylmorpholin-2-yl)methyl)-4-(thiophen-2-yl)-4,5-dihydro-1H-pyrazole-5-carboxamide]
- IC50 (MelJuSo cells): < 0.25 µM
- IC50 (A549 cells): 0.5 to 1 µM
- IC50 (LOX cells): 0.5 to 1 µM

SMILES: CC1(C(=O)NCC(=O)OCCO)C(c2cccs2)C(c2ccc(F)cc2)=NN1c1ccc(F)cc1F (stereo not drawn) [Compound 128, 2-hydroxyethyl 2-(1-(2,4-difluorophenyl)-3-(4-fluorophenyl)-5-methyl-4-(thiophen-2-yl)-4,5-dihydro-1H-pyrazole-5-carboxamido)acetate]
- IC50 (MelJuSo cells): 0.25 to 0.5 µM
- IC50 (A549 cells): 0.5 to 1 µM
- IC50 (LOX cells): 0.5 to 1 µM

SMILES: CC(C)(CO)CCCNC(=O)C1(C)C(c2ccoc2)C(c2ccc(F)cc2F)=NN1c1ccc(F)cc1F (stereo not drawn) [Compound 129, 1,3-bis(2,4-difluorophenyl)-4-(furan-3-yl)-N-(5-hydroxy-4,4-dimethylpentyl)-5-methyl-4,5-dihydro-1H-pyrazole-5-carboxamide]
- IC50 (MelJuSo cells): 0.25 to 0.5 µM
- IC50 (A549 cells): 0.5 to 1 µM
- IC50 (LOX cells): 0.5 to 1 µM

SMILES: COCCNC(=O)C1(C)C(c2ccoc2)C(c2ccc(F)cc2F)=NN1c1ccc(F)cc1F (stereo not drawn) [Compound 130, 1,3-bis(2,4-difluorophenyl)-4-(furan-3-yl)-N-(2-methoxyethyl)-5-methyl-4,5-dihydro-1H-pyrazole-5-carboxamide]
- IC50 (MelJuSo cells): 0.5 to 1 µM
- IC50 (A549 cells): > 2 µM
- IC50 (LOX cells): > 2 µM
